Laboratory results: patent US20100254965A1, “Adenosine Signaling in Diagnosis, Treatment, and Prevention of Priapism and Erectile Dysfunction” (BOARD OF REGENTS ,THE UNIVERSITY OF TEXAS SYSTEM, priority 2006, published 2010)

Test system: CCS and CCSM
Experiment: Phenylephrine-induced myosin light chain (MLC) phosphorylation, western blot
Format: cell-based, mouse
Conditions: intact penile organ culture and CCSM, PE 10 μM, adenosine 100 μM
Procedure: FIG. 18. Adenosine stimulated both cAMP and cGMP induction in corpus cavernosal smooth muscle cells (CCSM) via A2BR activation. (a) Adenosine receptor expression profile in purified primary CCSM. CCSM were purified from adult mouse penes. […] (b) CCSM were isolated and cultured from mouse penes. The cells were switched to serum-free medium and treated with different concentrations of adenosine with or without A2BR antagonist (MRS1706-10 μM), A2AR antagonist (ZM241385-50 nM) or A2AR agonist (CGS-21680-10 μM) alone for 10 min. Then cellular extracts were collected and cAMP levels were measured using an ELISA kit. […] After 10 min treatment, the cellular extracts were collected and cAMP levels were measured by using a commercial enzyme immunoassay kit (Amersham Pharmacia). […] 10 min after treatment, cellular extracts were collected and cGMP levels were measured by using a commercial enzyme immunoassay kit (Amersham Pharmacia). Data are expressed as mean±SE. *p<0.05, adenosine treated versus the control; **p<0.05, adenosine treated with MRS1706 versus the adenosine treated; ***p<0.05, CCS of A2BR-deficient mice treated with adenosine versus the CCS of wild type mice treated with adenosine. […] After 10 min treatment, the cellular extracts were collected and cAMP levels were measured by using a commercial enzyme immunoassay kit (Amersham Pharmacia). […]

For `Nc1ncnc2c1ncn2[C@@H]1O[C@H](CO)[C@@H](O)[C@H]1O` [adenosine], the “PE-mediated MLC phosphorylation” value was “decreased PE-mediated MLC phosphorylation”.
